What was measured:
Experiment in all cases: relative viability (nuclei count vs DMSO), 5 days (fraction); higher = more cells survive
BAM7 + Alpelisib = compound: CCOC1=CC=CC=C1N=NC2=C(NN(C2=O)C3=NC(=CS3)C4=CC=CC=C4)C [BAM7] + Cc1nc(NC(=O)N2CCC[C@H]2C(N)=O)sc1-c1ccnc(C(C)(C)C(F)(F)F)c1 [Alpelisib] (partner 2 µM)
Method in brief: (§1)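 The day after seeding in 1536-well plates, lung cancer cell lines were treated by pin tool with a single drug, or with a fixed anchor-drug dose together with five library-drug doses (not always all listed) in √10 steps. After 5 days, a combined fix-and-stain solution (final 0.05% Triton X-100, 1% formaldehyde, 1 ug/ml Hoechst) was added. Nuclei counted on 4× images gave relative viability as treated counts over vehicle counts, reported as the median of duplicate plates.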

BAM7 + Dasatinib = compound: CCOC1=CC=CC=C1N=NC2=C(NN(C2=O)C3=NC(=CS3)C4=CC=CC=C4)C [BAM7] + Cc1nc(Nc2ncc(C(=O)Nc3c(C)cccc3Cl)s2)cc(N2CCN(CCO)CC2)n1 [Dasatinib] (partner 0.075 µM)
Method in brief: as §1

[1] = compound: CCn1c(-c2nonc2N)nc2c(C#CC(C)(C)O)ncc(OC[C@H]3CCCNC3)c21 + C[C@@H](Oc1cc(-c2cnn(C3CCNCC3)c2)cnc1N)c1c(Cl)ccc(F)c1Cl [Crizotinib] (partner 1 µM)
Method in brief: as §1

[2] = compound: CCn1c(-c2nonc2N)nc2c(C#CC(C)(C)O)ncc(OC[C@H]3CCCNC3)c21 + COc1cc2c(Oc3ccc(NC(=O)C4(C(=O)Nc5ccc(F)cc5)CC4)cc3F)ccnc2cc1OCCCN1CCOCC1 [Foretinib] (partner 0.25 µM)
Method in brief: as §1

NCI-H661
relative viability (BAM7 + Alpelisib; first compound 0.5 µM): 0.736 | relative viability (BAM7 + Alpelisib; first compound 5 µM): 0.7 | relative viability (BAM7 + Alpelisib; first compound 15.81 µM): 0.699 | relative viability (BAM7 + Alpelisib; first compound 50 µM): 0.699 | relative viability (BAM7 + Dasatinib; first compound 0.5 µM): 0.991 | relative viability (BAM7 + Dasatinib; first compound 5 µM): 0.965 | relative viability (BAM7 + Dasatinib; first compound 15.81 µM): 0.759 | relative viability (BAM7 + Dasatinib; first compound 50 µM): 0.962 | relative viability ([1]; first compound 0.01 µM): 1.03 | relative viability ([1]; first compound 0.03162 µM): 0.984 | relative viability ([1]; first compound 0.1 µM): 1.08 | relative viability ([1]; first compound 0.3162 µM): 0.992 | relative viability ([1]; first compound 1 µM): 0.989 | relative viability ([2]; first compound 0.01 µM): 1.01 | relative viability ([2]; first compound 0.03162 µM): 1.06 | relative viability ([2]; first compound 0.1 µM): 1.06 | relative viability ([2]; first compound 0.3162 µM): 0.935 | relative viability ([2]; first compound 1 µM): 1.06

NCI-H727
relative viability (BAM7 + Alpelisib; first compound 0.5 µM): 0.599 | relative viability (BAM7 + Alpelisib; first compound 5 µM): 0.576 | relative viability (BAM7 + Alpelisib; first compound 15.81 µM): 0.57 | relative viability (BAM7 + Alpelisib; first compound 50 µM): 0.663 | relative viability (BAM7 + Dasatinib; first compound 0.5 µM): 0.351 | relative viability (BAM7 + Dasatinib; first compound 15.81 µM): 0.469 | relative viability (BAM7 + Dasatinib; first compound 50 µM): 0.312 | relative viability ([1]; first compound 0.01 µM): 0.841 | relative viability ([1]; first compound 0.03162 µM): 0.94 | relative viability ([1]; first compound 0.1 µM): 0.785 | relative viability ([1]; first compound 0.3162 µM): 0.667 | relative viability ([1]; first compound 1 µM): 0.763 | relative viability ([2]; first compound 0.01 µM): 0.833 | relative viability ([2]; first compound 0.03162 µM): 1.22 | relative viability ([2]; first compound 0.1 µM): 0.693 | relative viability ([2]; first compound 0.3162 µM): 0.877 | relative viability ([2]; first compound 1 µM): 1.08

NCI-H838
relative viability (BAM7 + Alpelisib; first compound 0.5 µM): 1.06 | relative viability (BAM7 + Alpelisib; first compound 5 µM): 1.05 | relative viability (BAM7 + Alpelisib; first compound 15.81 µM): 0.989 | relative viability (BAM7 + Alpelisib; first compound 50 µM): 1 | relative viability (BAM7 + Dasatinib; first compound 0.5 µM): 0.36 | relative viability (BAM7 + Dasatinib; first compound 5 µM): 0.297 | relative viability (BAM7 + Dasatinib; first compound 15.81 µM): 0.295 | relative viability (BAM7 + Dasatinib; first compound 50 µM): 0.335 | relative viability ([1]; first compound 0.01 µM): 0.805 | relative viability ([1]; first compound 0.03162 µM): 0.969 | relative viability ([1]; first compound 0.1 µM): 0.826 | relative viability ([1]; first compound 0.3162 µM): 0.835 | relative viability ([1]; first compound 1 µM): 0.841 | relative viability ([2]; first compound 0.01 µM): 0.969 | relative viability ([2]; first compound 0.03162 µM): 1.08 | relative viability ([2]; first compound 0.1 µM): 0.988 | relative viability ([2]; first compound 0.3162 µM): 1.02 | relative viability ([2]; first compound 1 µM): 1.07

NCI-H1355
relative viability (BAM7 + Alpelisib; first compound 0.5 µM): 0.786 | relative viability (BAM7 + Alpelisib; first compound 5 µM): 0.832 | relative viability (BAM7 + Alpelisib; first compound 15.81 µM): 0.725 | relative viability (BAM7 + Alpelisib; first compound 50 µM): 0.772 | relative viability (BAM7 + Dasatinib; first compound 0.5 µM): 0.572 | relative viability (BAM7 + Dasatinib; first compound 5 µM): 0.61 | relative viability (BAM7 + Dasatinib; first compound 15.81 µM): 0.46 | relative viability (BAM7 + Dasatinib; first compound 50 µM): 0.549 | relative viability ([1]; first compound 0.01 µM): 1.09 | relative viability ([1]; first compound 0.03162 µM): 0.943 | relative viability ([1]; first compound 0.1 µM): 1.03 | relative viability ([1]; first compound 0.3162 µM): 1.02 | relative viability ([1]; first compound 1 µM): 0.799 | relative viability ([2]; first compound 0.01 µM): 0.954 | relative viability ([2]; first compound 0.03162 µM): 1.05 | relative viability ([2]; first compound 0.1 µM): 0.937 | relative viability ([2]; first compound 0.3162 µM): 0.906 | relative viability ([2]; first compound 1 µM): 0.81

NCI-H1437
relative viability (BAM7 + Alpelisib; first compound 0.5 µM): 1.07 | relative viability (BAM7 + Alpelisib; first compound 5 µM): 1 | relative viability (BAM7 + Alpelisib; first compound 15.81 µM): 0.911 | relative viability (BAM7 + Alpelisib; first compound 50 µM): 0.909 | relative viability (BAM7 + Dasatinib; first compound 0.5 µM): 0.561 | relative viability (BAM7 + Dasatinib; first compound 5 µM): 0.574 | relative viability (BAM7 + Dasatinib; first compound 15.81 µM): 0.445 | relative viability (BAM7 + Dasatinib; first compound 50 µM): 0.833 | relative viability ([1]; first compound 0.01 µM): 0.911 | relative viability ([1]; first compound 0.03162 µM): 0.821 | relative viability ([1]; first compound 0.1 µM): 0.899 | relative viability ([1]; first compound 0.3162 µM): 0.936 | relative viability ([1]; first compound 1 µM): 0.927 | relative viability ([2]; first compound 0.01 µM): 1.18 | relative viability ([2]; first compound 0.03162 µM): 1.27 | relative viability ([2]; first compound 0.1 µM): 1.28 | relative viability ([2]; first compound 0.3162 µM): 1.27 | relative viability ([2]; first compound 1 µM): 1.36

NCI-H1563
relative viability (BAM7 + Alpelisib; first compound 0.5 µM): 0.991 | relative viability (BAM7 + Alpelisib; first compound 5 µM): 0.864 | relative viability (BAM7 + Alpelisib; first compound 15.81 µM): 0.864 | relative viability (BAM7 + Alpelisib; first compound 50 µM): 0.929 | relative viability (BAM7 + Dasatinib; first compound 0.5 µM): 0.438 | relative viability (BAM7 + Dasatinib; first compound 5 µM): 0.497 | relative viability (BAM7 + Dasatinib; first compound 15.81 µM): 0.484 | relative viability (BAM7 + Dasatinib; first compound 50 µM): 0.41 | relative viability ([1]; first compound 0.01 µM): 0.853 | relative viability ([1]; first compound 0.03162 µM): 0.923 | relative viability ([1]; first compound 0.1 µM): 0.799 | relative viability ([1]; first compound 0.3162 µM): 0.772 | relative viability ([1]; first compound 1 µM): 0.81 | relative viability ([2]; first compound 0.01 µM): 0.989 | relative viability ([2]; first compound 0.03162 µM): 0.884 | relative viability ([2]; first compound 0.1 µM): 0.886 | relative viability ([2]; first compound 0.3162 µM): 0.892 | relative viability ([2]; first compound 1 µM): 0.881

NCI-H1651
relative viability (BAM7 + Alpelisib; first compound 0.5 µM): 1.01 | relative viability (BAM7 + Alpelisib; first compound 5 µM): 0.861 | relative viability (BAM7 + Alpelisib; first compound 15.81 µM): 0.967 | relative viability (BAM7 + Alpelisib; first compound 50 µM): 0.883 | relative viability (BAM7 + Dasatinib; first compound 0.5 µM): 0.297 | relative viability (BAM7 + Dasatinib; first compound 5 µM): 0.372 | relative viability (BAM7 + Dasatinib; first compound 15.81 µM): 0.477 | relative viability (BAM7 + Dasatinib; first compound 50 µM): 0.456 | relative viability ([1]; first compound 0.01 µM): 0.857 | relative viability ([1]; first compound 0.03162 µM): 0.829 | relative viability ([1]; first compound 0.1 µM): 0.877 | relative viability ([1]; first compound 0.3162 µM): 0.853 | relative viability ([1]; first compound 1 µM): 0.893 | relative viability ([2]; first compound 0.01 µM): 0.865 | relative viability ([2]; first compound 0.03162 µM): 0.807 | relative viability ([2]; first compound 0.1 µM): 0.743 | relative viability ([2]; first compound 0.3162 µM): 0.521 | relative viability ([2]; first compound 1 µM): 0.779

NCI-H1666
relative viability (BAM7 + Alpelisib; first compound 0.5 µM): 1.04 | relative viability (BAM7 + Alpelisib; first compound 5 µM): 0.892 | relative viability (BAM7 + Alpelisib; first compound 15.81 µM): 0.9 | relative viability (BAM7 + Alpelisib; first compound 50 µM): 0.984 | relative viability (BAM7 + Dasatinib; first compound 0.5 µM): 0.847 | relative viability (BAM7 + Dasatinib; first compound 5 µM): 0.832 | relative viability (BAM7 + Dasatinib; first compound 15.81 µM): 0.755 | relative viability (BAM7 + Dasatinib; first compound 50 µM): 0.876 | relative viability ([1]; first compound 0.01 µM): 1.04 | relative viability ([1]; first compound 0.03162 µM): 1.1 | relative viability ([1]; first compound 0.1 µM): 0.966 | relative viability ([1]; first compound 0.3162 µM): 0.943 | relative viability ([1]; first compound 1 µM): 0.968 | relative viability ([2]; first compound 0.01 µM): 0.946 | relative viability ([2]; first compound 0.03162 µM): 0.957 | relative viability ([2]; first compound 0.1 µM): 0.982 | relative viability ([2]; first compound 0.3162 µM): 1.02 | relative viability ([2]; first compound 1 µM): 1.02

NCI-H1734
relative viability (BAM7 + Alpelisib; first compound 0.5 µM): 0.74 | relative viability (BAM7 + Alpelisib; first compound 5 µM): 0.804 | relative viability (BAM7 + Alpelisib; first compound 15.81 µM): 0.638 | relative viability (BAM7 + Alpelisib; first compound 50 µM): 0.676 | relative viability (BAM7 + Dasatinib; first compound 0.5 µM): 0.503 | relative viability (BAM7 + Dasatinib; first compound 5 µM): 0.59 | relative viability (BAM7 + Dasatinib; first compound 15.81 µM): 0.491 | relative viability (BAM7 + Dasatinib; first compound 50 µM): 0.53 | relative viability ([1]; first compound 0.01 µM): 0.629 | relative viability ([1]; first compound 0.03162 µM): 0.721 | relative viability ([1]; first compound 0.1 µM): 0.682 | relative viability ([1]; first compound 0.3162 µM): 0.685 | relative viability ([1]; first compound 1 µM): 0.641 | relative viability ([2]; first compound 0.01 µM): 0.765 | relative viability ([2]; first compound 0.03162 µM): 0.841 | relative viability ([2]; first compound 0.1 µM): 0.801 | relative viability ([2]; first compound 0.3162 µM): 0.748 | relative viability ([2]; first compound 1 µM): 0.799

— the supplement of paper PMC10307832
